The values below come from article PMC10934235, “Inhibitory Effects of the Polyphenols from the Root of Rhizophora apiculata Blume on Fatty Acid Synthase Activity and Human Colon Cancer Cells” (Molecules, 2024).

≈ marks a conversion by molar mass, not a printed value. Where two headings read alike, the source gives them in different places. A value given as a limit tells only on which side of the number the result lay.

Assay [1] addresses T1, chicken liver FAS (Gallus gallus, UniProt P12276).
T1 construct: The purification, storage, and application of the chicken liver FAS were conducted following established procedures; from tissue; host or cells: chicken liver (chickens from Huadu Broiler Corporation, Beijing)
As to the kind of experiment: FAS overall reaction, fast-binding inhibition (NADPH decrease at 340 nm). The class given is biochemical. The method, then:
(§1) The FAS employed in this study was sourced from chicken liver, given that the amino acid sequence of chicken FAS shares 63% identity with its human counterpart. The chickens were purchased from Huadu Broiler Corporation, Beijing, China. The purification, storage, and application of the chicken liver FAS were conducted following established procedures. Animal procedures adhered to the Guidelines for the Care and Use of Laboratory Animals as set forth by the Beijing Association for Laboratory Animal Science. […] Concentrations of the enzyme and substrates were determined through absorption measurements, with extinction coefficients being utilized as previously outlined.
(§2) The overall reaction of FAS and the β-ketoacyl reduction facilitated by KR (a functional domain of FAS) were assessed using an Amersham Pharmacia Ultrospec 4300 pro UV-Vis spectrophotometer (GE Healthcare China Company, Beijing, China) at 37 °C by monitoring the decrease of NADPH at 340 nm. The overall reaction mixture comprised potassium phosphate buffer (100 mM, pH 7.0), ethylenediaminetetraacetic acid (EDTA) (1 mM), 1,4-dithiothreitol (DTT) (1 mM), acetyl-CoA (6 µM), malonyl-CoA (12 µM), NADPH (37.5 µM), and chicken liver FAS (10 µg), with a total volume of 2.0 mL. For the KR reaction, the mixture included ethyl acetoacetate (40 mM), NADPH (35 µM), 1 mM of EDTA, and the enzyme (15 µg) in 100 mM of phosphate buffer at pH 7.0, with a total volume of 2.0 mL [41].
(§3) The extent of inhibition was quantified by determining the IC50 value through a plot of residual activity against varying inhibitor concentrations.

Assay [2] concerns CaCo2 cells. As to the kind of experiment: Cell viability, MTT assay. The class given is cell-based, human. An excerpt: (§4) The human colon cancer cell lines CaCo2, LoVo, and SW620 were purchased from the Type Culture Collection of the Chinese Academy of Sciences (Shanghai, China). The CaCo2 cell line, originating from a human colon adenocarcinoma isolated in the 1970s, undergoes processes of proliferation, confluency, and differentiation during growth. […] LoVo, another cell line isolated in 1971 from the large intestine of a person with grade IV Dukes C colorectal cancer, offers applications in cancer, toxicology, and immuno-oncology research. SW620 cells, obtained from the large intestine of a person Dukes C colorectal cancer patient, are valuable resources for cancer and toxicology investigations. Cells were grown in Dulbecco’s Modified Eagle Medium (DMEM) supplemented with 10% fetal bovine serum (FBS) and were maintained in a humidified atmosphere containing 95% air and 5% CO2 at 37 °C.
(§5) LR was examined to evaluate its inhibition on the proliferation of CaCo2, LoVo, and SW620 cells. CaCo2, LoVo, and SW620 cells were grown in 96-well plates until reaching confluence and were treated with either DMSO (1:1000) or increasing doses of LR for 24 h at 37 °C. Following this, the cell medium was replaced with fresh medium containing 500 µg/mL MTT. After a 4-h incubation at 37 °C, the plates were decanted, and 150 µL of DMSO was added to dissolve the formazan crystals. Subsequently, the plate was analyzed using a microplate spectrophotometer (Multiskan, MK3) (Thermo Fisher Scientific Inc., Waltham, MA, USA) at a wavelength of 492 nm. Each experiment was conducted five times on three separate occasions.
(Tetrazolium dyes change colour on reduction, which living cells bring about.)

For assay [3], the system named is SW620 cells. In words: Cell viability, MTT assay. The class given is cell-based, human.
Text: as §4, §5

For assay [4], the system named is LoVo cells. In words: Cell viability, MTT assay. The following applies: 24 h. The class given is cell-based, human.
Text: as §4, §5

The target of assay [5] is T1, chicken liver FAS. As to the kind of experiment: Enzyme kinetics study, FAS overall reaction (double reciprocal plots). The class given is biochemical. The following applies: LR 0-15.0 μg/mL. The method, then: as §2
(§6) Double reciprocal plots were generated for each inhibitor concentration to determine the competitive relationship between the variable substrate and inhibitor concentrations. This study focused on examining fast-binding inhibition.

In assay [6] the target is T2, intracellular FAS activity in SW620 cells (Homo sapiens, UniProt P49327).
T2 construct: the cells were sonicated at 4 °C and centrifuged at 12,000 rpm for 15 min at 4 °C to obtain particle-free supernatants; endogenous in cells; host or cells: CaCo2, LoVo, SW620
As to the kind of experiment: Intracellular FAS activity assay. The class given is cell-based.
Text: as §4
(§7) Cells were exposed to LR for 24 h, followed by collection through trypsinization, centrifugation, triple washing, and resuspension in cold PBS. Subsequently, the cells were sonicated at 4 °C and centrifuged at 12,000 rpm for 15 min at 4 °C to obtain particle-free supernatants. The intracellular FAS activity was assessed spectrophotometrically by measuring the reduction in absorbance at 340 nm due to the oxidation of NADPH. A total volume of 500 µL of buffer comprising 50 µL of particle-free supernatant, 25 mM of KH2PO4-K2HPO4 buffer, 0.25 mM of EDTA, 0.25 mM of dithiothreitol, 30 µM of acetyl-CoA, and 350 µM of NADPH (pH 7.0) was monitored at 340 nm for 1 min to establish baseline NADPH oxidation. Following the addition of […] of malonyl-CoA, the reaction was further monitored for 1 min to determine FAS-dependent NADPH oxidation.

Assay [7] deals with T3, intracellular FAS activity in CaCo2 cells (Homo sapiens, UniProt P49327).
T3 construct: the cells were sonicated at 4 °C and centrifuged at 12,000 rpm for 15 min at 4 °C to obtain particle-free supernatants; endogenous in cells; host or cells: CaCo2, LoVo, SW620
As to the kind of experiment: Intracellular FAS activity assay. The following applies: LR 60 µg/mL, 24 h. The class given is cell-based.
Text: as §4, §7

The target in assay [8] is T4, intracellular FAS activity in LoVo cells (Homo sapiens, UniProt P49327).
T4 construct: the cells were sonicated at 4 °C and centrifuged at 12,000 rpm for 15 min at 4 °C to obtain particle-free supernatants; endogenous in cells; host or cells: CaCo2, LoVo, SW620
As to the kind of experiment: Intracellular FAS activity assay. The class given is cell-based.
Text: as §4, §7

Assay [9] has as its target T5, KR (a functional domain of FAS) (Gallus gallus, UniProt P12276).
T5 construct: The purification, storage, and application of the chicken liver FAS were conducted following established procedures; from tissue; host or cells: chicken liver (chickens from Huadu Broiler Corporation, Beijing)
In words: KR reaction of FAS, fast-binding inhibition (ethyl acetoacetate, NADPH). The class given is biochemical, chicken. The method, then:
as §1
The overall reaction of FAS and the β-ketoacyl reduction facilitated by KR (a functional domain of FAS) were assessed using an Amersham Pharmacia Ultrospec 4300 pro UV-Vis spectrophotometer (GE Healthcare China Company, Beijing, China) at 37 °C by monitoring the decrease of NADPH at 340 nm. The overall reaction mixture comprised potassium phosphate buffer (100 mM, pH 7.0), ethylenediaminetetraacetic acid (EDTA) (1 mM), 1,4-dithiothreitol (DTT) (1 mM), acetyl-CoA (6 µM), malonyl-CoA (12 µM), NADPH (37.5 µM), and chicken liver FAS (10 µg), with a total volume of 2.0 mL. […]
as §3

Assay [10] concerns the target T5, KR (a functional domain of FAS). In words: Enzyme kinetics study, KR reaction of FAS (double reciprocal plots). The class given is biochemical, chicken. The following applies: NADPH variable substrate, LR 0-15.0 μg/mL. The method, then:
as §2, §6

[11] abbreviates: fast-binding inhibition, 37 °C, mean ± SD, three experiments.
Setting [12] is: fast-binding inhibition, 37 °C, mean ± SD, three experiments, read-out: FAS Inhibitory Activity IC50 (converted).
The mark [13] stands for this setting: LR 25 μg/mL + palmitic acid 100 μM, 24 h, versus LR alone.

T1 sequence (P12276 whole entry): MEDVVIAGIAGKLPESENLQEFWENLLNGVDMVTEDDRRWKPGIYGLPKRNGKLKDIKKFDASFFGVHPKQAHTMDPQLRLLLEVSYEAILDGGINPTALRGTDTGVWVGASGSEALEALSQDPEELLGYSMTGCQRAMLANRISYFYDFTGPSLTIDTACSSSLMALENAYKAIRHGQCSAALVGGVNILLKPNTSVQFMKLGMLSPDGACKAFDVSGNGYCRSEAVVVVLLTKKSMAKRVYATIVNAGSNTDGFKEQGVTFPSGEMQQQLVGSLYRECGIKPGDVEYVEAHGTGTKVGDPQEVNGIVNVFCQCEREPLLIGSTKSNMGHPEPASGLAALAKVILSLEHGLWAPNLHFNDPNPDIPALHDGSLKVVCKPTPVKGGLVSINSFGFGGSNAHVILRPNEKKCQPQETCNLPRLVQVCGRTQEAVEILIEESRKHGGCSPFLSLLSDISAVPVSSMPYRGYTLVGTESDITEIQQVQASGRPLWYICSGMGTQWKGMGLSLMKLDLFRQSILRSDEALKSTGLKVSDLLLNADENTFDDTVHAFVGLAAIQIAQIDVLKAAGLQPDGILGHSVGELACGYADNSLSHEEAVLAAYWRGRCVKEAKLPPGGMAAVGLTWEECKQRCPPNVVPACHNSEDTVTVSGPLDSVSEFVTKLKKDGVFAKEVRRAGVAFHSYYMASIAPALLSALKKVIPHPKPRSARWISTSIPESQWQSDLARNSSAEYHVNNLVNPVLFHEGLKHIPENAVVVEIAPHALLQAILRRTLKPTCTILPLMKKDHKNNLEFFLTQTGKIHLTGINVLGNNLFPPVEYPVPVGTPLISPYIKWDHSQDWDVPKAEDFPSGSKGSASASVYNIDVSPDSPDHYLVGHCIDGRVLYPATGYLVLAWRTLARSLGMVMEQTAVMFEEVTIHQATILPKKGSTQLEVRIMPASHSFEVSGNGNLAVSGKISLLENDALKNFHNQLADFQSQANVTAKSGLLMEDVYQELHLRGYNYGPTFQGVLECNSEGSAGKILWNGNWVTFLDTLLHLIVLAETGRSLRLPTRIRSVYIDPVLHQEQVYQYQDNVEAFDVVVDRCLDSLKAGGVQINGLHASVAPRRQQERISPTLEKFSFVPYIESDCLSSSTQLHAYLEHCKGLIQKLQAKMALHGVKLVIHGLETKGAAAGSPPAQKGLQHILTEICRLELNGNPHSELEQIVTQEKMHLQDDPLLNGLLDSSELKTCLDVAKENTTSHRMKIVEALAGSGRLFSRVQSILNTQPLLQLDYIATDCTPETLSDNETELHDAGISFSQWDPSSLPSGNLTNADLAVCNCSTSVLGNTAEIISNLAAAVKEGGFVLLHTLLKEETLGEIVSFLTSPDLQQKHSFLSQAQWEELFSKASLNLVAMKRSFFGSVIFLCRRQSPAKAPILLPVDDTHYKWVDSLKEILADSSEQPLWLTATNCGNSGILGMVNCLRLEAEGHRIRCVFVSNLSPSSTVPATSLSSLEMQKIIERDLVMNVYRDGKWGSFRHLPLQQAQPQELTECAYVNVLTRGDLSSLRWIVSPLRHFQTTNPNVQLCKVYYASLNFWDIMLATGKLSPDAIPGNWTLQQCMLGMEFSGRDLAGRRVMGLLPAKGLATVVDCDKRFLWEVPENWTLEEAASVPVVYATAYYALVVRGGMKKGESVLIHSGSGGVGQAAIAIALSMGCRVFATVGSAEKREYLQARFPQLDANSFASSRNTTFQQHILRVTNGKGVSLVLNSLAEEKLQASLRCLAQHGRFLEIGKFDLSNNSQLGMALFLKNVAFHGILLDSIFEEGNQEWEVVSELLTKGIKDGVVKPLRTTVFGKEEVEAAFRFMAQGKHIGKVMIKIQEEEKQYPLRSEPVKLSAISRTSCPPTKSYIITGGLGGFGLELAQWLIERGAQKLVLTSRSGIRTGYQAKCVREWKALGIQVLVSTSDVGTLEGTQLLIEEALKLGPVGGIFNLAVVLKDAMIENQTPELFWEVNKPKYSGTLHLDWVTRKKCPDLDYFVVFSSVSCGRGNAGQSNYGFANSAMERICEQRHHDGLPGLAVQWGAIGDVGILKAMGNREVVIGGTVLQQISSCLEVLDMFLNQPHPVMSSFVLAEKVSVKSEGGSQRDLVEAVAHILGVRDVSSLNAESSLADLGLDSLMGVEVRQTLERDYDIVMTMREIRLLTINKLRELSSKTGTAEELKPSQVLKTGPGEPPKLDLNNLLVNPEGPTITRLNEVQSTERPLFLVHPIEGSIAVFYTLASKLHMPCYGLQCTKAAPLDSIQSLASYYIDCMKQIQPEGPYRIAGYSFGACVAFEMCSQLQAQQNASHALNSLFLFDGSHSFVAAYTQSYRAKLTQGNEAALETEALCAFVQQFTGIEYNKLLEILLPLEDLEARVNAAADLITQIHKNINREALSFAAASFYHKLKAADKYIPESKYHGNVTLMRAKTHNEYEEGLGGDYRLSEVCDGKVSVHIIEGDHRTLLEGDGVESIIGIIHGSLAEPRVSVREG
T4 sequence (P49327 whole entry): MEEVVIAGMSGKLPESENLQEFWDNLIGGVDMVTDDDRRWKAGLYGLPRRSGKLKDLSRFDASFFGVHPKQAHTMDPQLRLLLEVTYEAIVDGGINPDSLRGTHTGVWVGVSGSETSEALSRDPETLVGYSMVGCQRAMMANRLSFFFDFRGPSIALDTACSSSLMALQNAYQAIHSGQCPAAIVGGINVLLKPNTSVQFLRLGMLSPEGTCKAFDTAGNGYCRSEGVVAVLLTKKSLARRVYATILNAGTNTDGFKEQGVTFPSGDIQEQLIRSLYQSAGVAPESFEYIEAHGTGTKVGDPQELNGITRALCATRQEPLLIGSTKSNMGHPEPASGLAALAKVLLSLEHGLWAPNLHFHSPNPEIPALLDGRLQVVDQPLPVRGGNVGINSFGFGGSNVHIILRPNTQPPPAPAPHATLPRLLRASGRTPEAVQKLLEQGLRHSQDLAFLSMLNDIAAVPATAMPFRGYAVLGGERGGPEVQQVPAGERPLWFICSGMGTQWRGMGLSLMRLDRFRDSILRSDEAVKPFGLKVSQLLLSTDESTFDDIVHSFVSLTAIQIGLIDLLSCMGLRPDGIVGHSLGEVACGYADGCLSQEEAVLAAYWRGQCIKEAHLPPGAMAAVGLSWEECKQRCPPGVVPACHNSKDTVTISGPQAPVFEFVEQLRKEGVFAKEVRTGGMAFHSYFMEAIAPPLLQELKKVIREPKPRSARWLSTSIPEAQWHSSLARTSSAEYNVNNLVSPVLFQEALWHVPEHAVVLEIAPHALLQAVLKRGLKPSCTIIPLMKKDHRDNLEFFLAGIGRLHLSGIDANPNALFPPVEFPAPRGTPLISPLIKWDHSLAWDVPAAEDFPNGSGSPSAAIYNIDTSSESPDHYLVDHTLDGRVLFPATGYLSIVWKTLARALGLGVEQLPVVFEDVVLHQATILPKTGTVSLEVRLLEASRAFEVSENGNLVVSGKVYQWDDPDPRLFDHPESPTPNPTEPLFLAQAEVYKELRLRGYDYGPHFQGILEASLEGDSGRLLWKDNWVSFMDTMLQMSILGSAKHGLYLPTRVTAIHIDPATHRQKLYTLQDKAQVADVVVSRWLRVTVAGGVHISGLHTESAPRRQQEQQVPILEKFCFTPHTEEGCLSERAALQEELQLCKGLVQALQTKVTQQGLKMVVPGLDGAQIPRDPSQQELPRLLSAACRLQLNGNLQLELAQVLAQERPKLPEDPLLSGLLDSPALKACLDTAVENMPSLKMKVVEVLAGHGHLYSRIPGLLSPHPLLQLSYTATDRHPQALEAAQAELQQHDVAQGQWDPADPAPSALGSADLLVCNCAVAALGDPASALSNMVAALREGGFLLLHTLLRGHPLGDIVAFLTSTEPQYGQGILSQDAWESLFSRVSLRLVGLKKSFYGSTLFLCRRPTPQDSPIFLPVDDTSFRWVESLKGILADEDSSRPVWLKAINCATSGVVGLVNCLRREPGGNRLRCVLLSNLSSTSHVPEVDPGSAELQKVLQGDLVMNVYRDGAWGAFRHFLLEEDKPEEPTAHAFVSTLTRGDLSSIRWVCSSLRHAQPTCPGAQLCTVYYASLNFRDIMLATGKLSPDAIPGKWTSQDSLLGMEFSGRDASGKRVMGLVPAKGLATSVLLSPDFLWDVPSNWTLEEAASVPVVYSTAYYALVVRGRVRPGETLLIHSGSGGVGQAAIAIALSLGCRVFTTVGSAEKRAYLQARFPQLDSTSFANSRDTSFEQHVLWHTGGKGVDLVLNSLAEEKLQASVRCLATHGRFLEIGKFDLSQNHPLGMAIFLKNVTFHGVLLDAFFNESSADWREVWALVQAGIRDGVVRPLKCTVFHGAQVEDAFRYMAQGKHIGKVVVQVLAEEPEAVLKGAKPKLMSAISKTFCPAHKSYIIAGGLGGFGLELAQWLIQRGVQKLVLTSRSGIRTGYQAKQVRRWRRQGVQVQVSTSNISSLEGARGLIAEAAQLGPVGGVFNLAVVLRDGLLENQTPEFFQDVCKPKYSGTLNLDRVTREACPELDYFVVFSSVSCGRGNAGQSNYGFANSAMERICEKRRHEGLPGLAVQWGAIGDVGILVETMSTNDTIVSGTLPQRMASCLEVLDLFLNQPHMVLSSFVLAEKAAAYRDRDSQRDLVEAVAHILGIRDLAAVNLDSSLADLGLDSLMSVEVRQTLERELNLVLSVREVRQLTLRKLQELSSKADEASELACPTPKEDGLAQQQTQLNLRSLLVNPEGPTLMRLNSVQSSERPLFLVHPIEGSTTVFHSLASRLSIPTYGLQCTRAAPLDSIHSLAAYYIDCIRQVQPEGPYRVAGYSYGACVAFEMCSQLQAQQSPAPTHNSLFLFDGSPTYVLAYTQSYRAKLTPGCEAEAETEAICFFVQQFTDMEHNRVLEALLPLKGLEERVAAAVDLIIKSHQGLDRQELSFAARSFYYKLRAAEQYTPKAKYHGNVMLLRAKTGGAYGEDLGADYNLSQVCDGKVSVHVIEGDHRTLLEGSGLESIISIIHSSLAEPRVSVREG
T2 sequence (P49327 whole entry): as above
T5 sequence (P12276 whole entry, the tested form may be a part): as the sequence (P12276 whole entry) above
T3 sequence (P49327 whole entry): as the sequence (P49327 whole entry) above

Broadly, the IC50 is the concentration that inhibits the measured activity by half. For `CC1OC(OC2Cc3c(O)cc(O)cc3OC2c2ccc(O)cc2)C(O)C(O)C1O` (stereo not shown) [AR, afzelechin-3-rhamnopyranoside], the “FAS Inhibitory Activity IC50” value in [1] (setting [11]) is “did not show a significant inhibitory effect”. Further, the IC50 in assay [1] (setting [12]) is more than 476 µM.
Turning to `O=C(O[C@@H]1Cc2c(O)cc(O)cc2O[C@@H]1c1cc(O)c(O)c(O)c1)c1cc(O)c(O)c(O)c1` [EGCG, epigallocatechin gallate, reference compound], the “FAS Inhibitory Activity IC50” value in [1] (setting [11]) amounted to 24.8 ± 2.2 µg/mL.
Turning to `COc1cc(C2c3c(cc(OC)c(O)c3OC)CC(CO)C2COC2OCC(O)C(O)C2O)cc(OC)c1O` (stereo not drawn) [LA, lyoniresinol-3α-O-β-arabinopyranoside], in assay [1] (setting [11]), the “FAS Inhibitory Activity IC50” value is given as “did not show a significant inhibitory effect”. The IC50 in assay [1] (setting [12]) is more than 362 µM.
For the compound `COc1cc(C2c3c(cc(OC)c(O)c3OC)CC(CO)C2COC2OC(C)C(O)C(O)C2O)cc(OC)c1O` (stereo not drawn) [LR, lyoniresinol-3α-O-β-rhamnopyranoside], the IC50 in assay [2] (Homo sapiens, Caco-2, 24 h, MTT) is 28.4 µg/mL (≈ 50.1 µM); in assay [3] (Homo sapiens, SW-620, 24 h, MTT) it was 22.1 µg/mL (≈ 39 µM); in assay [4] (Homo sapiens, MTT), 24.9 µg/mL (≈ 43.9 µM); in assay [6] (24 h treatment), 38.5 µM; in [8] (24 h treatment), 45 µM; in assay [9], 56.3 µM. Moreover, the half-maximal inhibitory concentration (IC50) in assay [1] (setting [12]) was 35.5 µM; in assay [1] (same value as 20.1 µg/mL given in molar unit, read-out: FAS inhibition IC50), 35.5 µM. For the same compound, the “Cell viability with exogenous palmitic acid (rescue)” value in assay [2] (setting [13]) was “restored significantly”; in assay [3] (setting [13]), “restored significantly”; in [4] (LR 25 μg/mL + palmitic acid 100 μM, versus LR alone) it was “restored significantly”. Besides, the “Type of inhibition with respect to acetyl-CoA” value in assay [5] (acetyl-CoA variable substrate) was “competitively”. For the same compound, the “Type of inhibition with respect to malonyl-CoA” value in assay [5] (malonyl-CoA variable substrate) is recorded as “noncompetitively”. The “Relative FAS activity” value in [6] (LR 60 µg/mL, 24 h) is on record as “under 20%”; in [7], “under 20%”; in [8] (LR 60 µg/mL, 24 h), “under 20%”. For the same compound, the “Type of inhibition with respect to NADPH” value in assay [10] was “competitively”.
